Data as given in US20100056524A1, “Compound” (priority 2008, published 2010).
Where a name gives a salt, the structure may show the parent alone. Read-outs that look alike come from different tables or passages of the source.

Assays:
[1] = tested on: CK1; assay: CK1 protein kinase assay; assay type: biochemical, human; settings: for residual kinase activity: CK1
Text: (§1) All protein kinases were of human origin and encoded full length proteins, unless indicated otherwise. They were either expressed as glutathione S-transferase (GST) fusion proteins in Escherichia Coli or as hexahistidine (His6)-tagged proteins in insect Sf21 cells. GST fusion proteins were purified by affinity chromatography on glutathione-Sepharose, and His6-tagged proteins on nickel/nitriloacetate-agarose. The procedures for expressing some of the protein kinases used herein have been detailed previously.^8,9 The following sections outline the DNA vectors synthesised and the procedures used to express and purifying protein kinases that have not been reported previously.
(§2) All assays (25.5 μl) were carried out at room temperature (21° C.) and were linear with respect to time and enzyme concentration under the conditions used. Assays were performed for 30 min using Multidrop Micro reagent dispensers (Thermo Electron Corporation, Waltham, Mass. 02454, USA) in a 96-well format. The concentration of magnesium acetate in the assays was 10 mM and the [γ-33P] ATP (800 cpm/pmol) was used at 5, 20 or 50 μM as indicated, in order to be at or below the Km for ATP for each enzyme. Protein kinases assayed at 5 μM ATP were: —ERK1, ERK8, PKBα, MARK3, Aurora C. Protein kinases assayed at 20 μM ATP were: —JNK1, PDK1, CHK1, CHK2, CDK2 and Aurora B. Protein kinases assayed at 50 μM ATP were: —MNK2, IKKepsilon and TBK1.
(§3) The assays were initiated with MgATP, stopped by addition of 5 μl of 0.5 M orthophosphoric acid and spotted on to P81 filterplates using a unifilter harvester (PerkinElmer, Boston, Mass. 02118, USA). The IC50 values of inhibitors were determined after carrying out assays at 10 different concentrations of each compound.
(§4) Unless stated otherwise, enzymes were diluted in 50 mM Tris/HCl pH 7.5, 0.1 mM EGTA, 1 mg/ml BSA, 0.1% (v/v) 2-mercaptoethanol and assayed in 50 mM Tris/HCl pH 7.5, 0.1 mM EGTA, 0.1% (v/v) 2-mercaptoethanol.

[2] = biological target: T1, PKCa (Homo sapiens, UniProt P17252); assay: PKCa protein kinase assay; assay type: biochemical; settings: for remaining activity at 10 µM: 10 μM compound; for residual kinase activity PKCa: 1 μm compound; for remaining activity at 1 µM: 1 μM compound
T1 construct: All protein kinases were of human origin and encoded full length proteins, unless indicated otherwise; made in house
Text: as §1, §2, §3, §4

[3] = biological target: T2, DYRK2 (Homo sapiens, UniProt Q92630); assay: DYRK2 protein kinase assay; assay type: biochemical; settings: for remaining activity at 10 µM: 10 μM compound; for residual kinase activity DYRK2: 1 μm compound; for remaining activity at 1 µM: 1 μM compound
T2 construct: All protein kinases were of human origin and encoded full length proteins, unless indicated otherwise; made in house
T2 sequence (Q92630 1-601): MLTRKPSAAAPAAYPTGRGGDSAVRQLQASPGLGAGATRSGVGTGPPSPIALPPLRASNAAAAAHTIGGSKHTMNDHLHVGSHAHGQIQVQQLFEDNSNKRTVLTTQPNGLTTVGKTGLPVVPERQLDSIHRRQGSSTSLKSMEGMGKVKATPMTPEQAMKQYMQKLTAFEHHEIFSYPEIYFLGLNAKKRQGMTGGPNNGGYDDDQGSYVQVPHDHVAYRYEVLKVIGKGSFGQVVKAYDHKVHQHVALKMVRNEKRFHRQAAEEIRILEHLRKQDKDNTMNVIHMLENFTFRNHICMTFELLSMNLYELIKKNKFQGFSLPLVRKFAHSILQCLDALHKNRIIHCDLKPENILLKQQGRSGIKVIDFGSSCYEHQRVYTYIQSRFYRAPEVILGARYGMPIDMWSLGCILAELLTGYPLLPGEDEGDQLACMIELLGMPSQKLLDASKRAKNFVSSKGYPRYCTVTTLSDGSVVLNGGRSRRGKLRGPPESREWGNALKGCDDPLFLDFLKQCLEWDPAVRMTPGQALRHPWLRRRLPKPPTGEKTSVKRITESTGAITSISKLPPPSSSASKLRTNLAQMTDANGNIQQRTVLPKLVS
Text: as §1, §2, §3, §4

[4] = tested on: IRR; assay: IRR protein kinase assay; assay type: biochemical, human; settings: for residual kinase activity: IRR
Text: as §1, §2, §3, §4

[5] = read-out: residual kinase activity PKCa
[6] = read-out: residual kinase activity DYRK2
[7] = PKCa, read-out: residual kinase activity
[8] = DYRK2, read-out: residual kinase activity

Row | Compound | residual kinase activity CK1 ([1]; 10 μM compound) [%] | residual kinase activity CK1 ([1]; 1 μm compound) [%] | remaining activity at 10 µM [2, 5] [%] | residual kinase activity PKCa [2] [%] | remaining activity at 10 µM [3, 6] [%] | residual kinase activity DYRK2 [3] [%] | residual kinase activity IRR ([4]; 10 μM compound) [%] | residual kinase activity IRR ([4]; 1 μm compound) [%] | residual kinase activity ([1]; 1 μM compound) [%] | residual kinase activity ([1]; 10 μM compound) [%] | remaining activity at 1 µM [2, 7] [%] | remaining activity at 10 µM [2, 7] [%] | remaining activity at 1 µM [3, 8] [%] | remaining activity at 10 µM [3, 8] [%] | residual kinase activity ([4]; 1 μM compound) [%] | residual kinase activity ([4]; 10 μM compound) [%]
1 | O=C(NCCCNc1nc(Nc2cccc(F)c2)ncc1Br)C1CCC1 [Compound A, cyclobutanecarboxylic acid {3-[5-bromo-2-(3-fluoro-phenylamino)-pyrimidin-4-ylamino]-propyl}-amide, reference compound] | 50 | 91 | 49 | 94 | 6 | 36 | 15 | 32 |  |  |  |  |  |  |  | 
2 | O=C(NCCCNc1nc(Nc2cccc(F)c2)ncc1C1CC1)C1CCC1 [Example 23, Cyclobutanecarboxylic acid {3-[5-cyclopropyl-2-(3-fluoro-phenylamino)-pyrimidin-4-ylamino]-propyl}-amide] | 64 | 93 | 87 | 81 | 50 | 67 | 17 | 44 | 93 | 64 | 81 | 87 | 67 | 50 | 44 | 17
3 | O=C(NCCCNc1nc(Nc2cccc(N3CCCC3=O)c2)ncc1C1CC1)c1cccs1 [Example 47, Thiophene-2-carboxylic acid (3-{5-cyclopropyl-2-[3-(2-oxo-pyrrolidin-1-yl)-phenylamino]-pyrimidin-4-ylamino}-propyl)-amide. Hydrochloride salt] |  |  |  |  |  |  |  |  | 102 | 106 | 83 | 69 | 81 | 63 | 64 | 25
4 | O=C(NCCCNc1nc(Nc2cccnc2)ncc1C1CC1)c1cccs1 [Example 50, Thiophene-2-carboxylic acid {3-[5-cyclopropyl-2-(pyridin-3-ylamino)-pyrimidin-4-ylamino]-propyl}-amide] |  |  |  |  |  |  |  |  | 107 | 82 | 85 | 70 | 76 | 38 | 39 | 17
